{"source": "patent US20230414700A1", "about": "“TG2 INHIBITORS FOR IMPROVING MUCOCILIARY CLEARANCE IN RESPIRATORY DISEASES” (INSERM (INSTITUT NATIONAL DE LA SANTÉ ET DE LA RECHERCHE …, priority 2020, published 2023)", "key": {"[1]": {"tested_on": "ALI-regenerated hypersecretory epithelia", "experiment": "Mucus (MUC5AC) tethering to the apical surface after extensive apical washes with PBS, immunofluorescence", "type": "cell-based", "details": "IL-13-induced hypersecretory bronchial epithelium reconstituted in vitro at air-liquid interface; n=2", "text": "Whole-mount images represent stacks from optical sections done through the mucus (parallel to the plane of the epithelium). epi, epithelium. Extracellular mucus was quantified after beta-tubulin staining to delineate cell apex, and expressed as sum intensities (in […]) (n=2).\n(§1) Methods: The bronchial epithelium from asthmatic patients, cystic fibrosis or control subjects was reconstituted in vitro by culturing cells at the air-liquid interface. Hyper secretory differentiation was modeled by exposing control bronchial epithelial to IL-13. Expression of TG2 and MUC5AC was assessed by RT-qPCR and immunohistochemistry/immunofluorescence. Mucin modification by TG2 was evaluated by BAP incorporation and Western-blot analysis. Mucus tethering to the apical surface was studied by detecting MUC5AC after extensive apical washes with PBS. The role of TG2 was evaluated using the pharmacological inhibitor ZDON. Mucociliary clearance was evaluated by video microscopy using fluorescent microspheres."}, "[2]": {"tested_on": "IL-13-stimulated hypersecretory epithelia", "experiment": "Mucociliary clearance by video microscopy using fluorescent microspheres", "type": "cell-based", "details": "30-second image sequence, n=2", "procedure": "The final image from a 30-second image sequence (every 5 ms) is shown (ImageJ, Z Project). B: Quantification of travelled distance (ImageJ, Plugin MTrack3). Median values are shown. n=2.\nas §1"}}, "note": "Entries after “also recorded” stand apart in the source; their conditions may differ. Square brackets hold non-standard residues; d marks the D form. Peptide text beside a SMILES is read from it. * marks the point of attachment. ξ: configuration not given here. DON = [N-]=[N+]=CC(=O)CC[C@H](N)C(=O)O; Ile(3ξ) = CCC(C)[C@H](N)C(=O)O; Cbz = O=C(OCc1ccccc1)*"}
{"smiles": "CCC(C)[C@H](NC(=O)[C@H](CCC(N)=O)NC(=O)[C@H](CCC(=O)C=[N+]=[N-])NC(=O)OCc1ccccc1)C(=O)N[C@H](C(=O)OC)C(C)C", "note": "(some centres unmarked) [ZDON] (Cbz-[DON]Q[Ile(3ξ)]V-OMe)", "values": [{"measurement": "MUC5AC tethering to the apical surface of hypersecretory epithelia", "setting": "[1]", "value": "decreases MUC5AC tethering; also recorded: blocked"}, {"measurement": "Mucociliary clearance (travelled distance of fluorescent microspheres)", "setting": "[2]", "value": "tends to ameliorate mucociliary clearance"}]}
